The values below come from patent publication US4948791A, “Novel Cytotoxic cyclic depsipeptides from the tunicate trididemnum solidum” (priority 1989, dated 1990).

≈ marks a conversion by molar mass, not a printed value. Numbered stars: 1 amine (or outer) side, 2 acyl side, 3 side chain; on linkers, the order of the positions; unused ones are H or OH. Bridge positions count the residues as written; N and C are the ends. Square brackets hold non-standard residues; d marks the D form. Peptide text beside a SMILES is read from it. X1 = CC[C@H](C)[C@@H](N[*:1])[C@@H](O)CC(=O)O[C@H](C(=O)[C@H](C)C(=O)[*:2])C(C)C; NMeY = CN[C@@H](Cc1ccc(O)cc1)C(=O)O; dNMeL = CN[C@H](CC(C)C)C(=O)O

The test system of this assay is L1210 mouse leukemia cells. In words: Three-day L1210 cell growth inhibition assay (at 37° C.). The class given is cell-based. The conditions noted are these: for growth of L1210 mouse leukemia cells in vitro: statement in words. On the procedure:
Three-day L1210 cell growth inhibition assay (at 37° C.)

The mark [1] stands for this setting: three-day L1210 cell growth inhibition assay.
Where [2] appears, read: three-day L1210 cell growth inhibition, 37° C., first ID50/ID90 column pair of Table 1.
The mark [3] stands for this setting: three-day L1210 cell growth inhibition, 37° C., second ID50/ID90 column pair of Table 1.

In the case of “3-hydroxydecanoyl-L-Gln-L-Gln-L-Gln-L-Gln-didemnin B [Didemnin Y]”, the “growth of L1210 mouse leukemia cells in vitro” value is on record as “inhibit the growth”. The compound also registered an ID50 under setting [1] of 6.4 ng/mL. Besides, under setting [2], the ID50 stood at 6.4 ng/mL and the ID90 came out at 21 ng/mL. Under setting [3], this compound came in with an ID50 of 4.8 ng/mL and an ID90 of 20 ng/mL.
Under setting [2], `CC[C@H](C)[C@H]1NC(=O)[C@@H](NC(=O)[C@@H](CC(C)C)NC)[C@@H](C)OC(=O)[C@H](Cc2ccc(OC)cc2)N(C)C(=O)[C@@H]2CCCN2C(=O)[C@H](CC(C)C)NC(=O)[C@@H](C)C(=O)[C@H](C(C)C)OC(=O)C[C@@H]1O` [Didemnin A, didemnin A] (H-[dNMeL]T[X1]LP[NMeY](Me); ester 2-C) yielded an ID50 of 7.8 ng/mL (≈ 0.00827 µM) and an ID90 of 58 ng/mL (≈ 0.0615 µM).
Under setting [3], `CC[C@H](C)[C@H]1NC(=O)[C@@H](NC(=O)[C@@H](CC(C)C)N(C)C(=O)[C@@H]2CCCN2C(=O)C(C)O)[C@@H](C)OC(=O)[C@H](Cc2ccc(OC)cc2)N(C)C(=O)[C@@H]2CCCN2C(=O)[C@H](CC(C)C)NC(=O)[C@@H](C)C(=O)[C@H](C(C)C)OC(=O)C[C@@H]1O` (stereo partly drawn) [Didemnin B, didemnin B] showed an ID50 of 3.8 ng/mL (≈ 0.00342 µM) and an ID90 of 15 ng/mL (≈ 0.0135 µM).
As for “(R)-3-hydroxydecanoyl-L-Gln-L-Gln-L-Gln-didemnin B [Didemnin X]”, the “growth of L1210 mouse leukemia cells in vitro” value is on record as “inhibit the growth”. The ID50 under setting [1] was determined as 4 ng/mL. In addition, under setting [2], the ID50 was found to be 4 ng/mL and the ID90 was found to be 17 ng/mL. Under setting [3], this compound yielded an ID50 of 4.8 ng/mL and an ID90 of 17 ng/mL.
On to didemnin D, for which the ID50 by setting is: under setting [2], 3.4 ng/mL; under setting [3], 4.2 ng/mL. In addition, the ID90 by setting is: under setting [2], 15 ng/mL; under setting [3], 16 ng/mL.
Under setting [2], didemnin E returned an ID50 of 1.1 ng/mL and an ID90 of 7.6 ng/mL. For the same compound, under setting [3], the ID50 was determined as 0.8 ng/mL and the ID90 turned out to be 5.6 ng/mL.
